Laboratory results published in paper PMC8735877, “Flavonoids as tyrosinase inhibitors in in silico and in vitro models: basic framework of SAR using a statistical modelling approach” (Journal of Enzyme Inhibition and Medicinal Chemistry, 2021).
Read-outs that look alike come from different tables or passages of the source.

Experiments:
mushroom tyrosinase [1] = target: T1, mushroom tyrosinase (Agaricus bisporus, UniProt C7FF04); assay: Tyrosinase inhibition assay (L-DOPA oxidation, absorbance at 492 nm); format: biochemical;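 also: enzyme in phosphate buffer, compounds preincubated with enzyme, inhibition computed against blank absorbance, IC50 fitted by nonlinear regression, runs in triplicate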
Method: The inhibitory effect on mushroom tyrosinase (TYase) was evaluated using a method reported in the literature with some modifications[21]. This assay was performed in PBS (100 mM, pH = 6.8 in 25 °C). Test samples 1–44 (80 µL) were preincubated with TYase solution (40 µL; 250 U/mL) at 25 °C for 10 min. Then, L-DOPA (80 µL; 0.19 mg/mL) was added, and after an additional 10 min at 25 °C, the absorbance was measured at 492 nm. […] The inhibitory effect was calculated as follows: TYaseInh (%) = [(B−C)/C] x 100 where B and C are the absorbances of the blank and the compounds, respectively. […] All tests were performed in triplicate.
Statistical analysis for IC50 calculations was performed using nonlinear regression using GraphPad Prism 9 (Trail, GraphPad Software, La Jolla, CA, USA). Data were collected as mean ± SD (n = 3), and the significance of differences was analysed using one-way analysis of variance (ANOVA).

mushroom tyrosinase [2] = target: T1, mushroom tyrosinase; assay: Tyrosinase inhibition kinetic analysis (Lineweaver-Burk and Dixon plots); format: biochemical; conditions: for Type of inhibition: Lineweaver-Burk plots
Method: The enzyme reaction kinetics of these compounds were measured by constructing Lineweaver-Burk plots of inverse velocities (1/V), contrary to the inverse of substrate concentration (1/S)[22]^,[23]. Preincubations and measurement times were performed using the same protocol as described above. The enzyme concentration (250 U/mL) was kept constant in the presence of substrate solutions (L-DOPA) between 0.25 and 2 mM in all kinetic studies. The inhibitor concentrations for all test compounds were 0, 25, and 50 µM. The inhibitory types and inhibitory constant (Ki) values were described by 1/V versus inhibitor concentration plots (Dixon plot).

[3] = substrate L-DOPA, PBS pH 6.8, 25 °C, highest tested concentration 500 µM, mean ± SD, n = 3, read-out: IC50
[4] = Dixon plot, L-DOPA 0.25-2 mM, inhibitor 0, 25, 50 µM, ± SD, triplicate, read-out: Ki
[5] = L-DOPA 0.25-2 mM, inhibitor 0, 25, 50 µM

T1 sequence (C7FF04 1-392): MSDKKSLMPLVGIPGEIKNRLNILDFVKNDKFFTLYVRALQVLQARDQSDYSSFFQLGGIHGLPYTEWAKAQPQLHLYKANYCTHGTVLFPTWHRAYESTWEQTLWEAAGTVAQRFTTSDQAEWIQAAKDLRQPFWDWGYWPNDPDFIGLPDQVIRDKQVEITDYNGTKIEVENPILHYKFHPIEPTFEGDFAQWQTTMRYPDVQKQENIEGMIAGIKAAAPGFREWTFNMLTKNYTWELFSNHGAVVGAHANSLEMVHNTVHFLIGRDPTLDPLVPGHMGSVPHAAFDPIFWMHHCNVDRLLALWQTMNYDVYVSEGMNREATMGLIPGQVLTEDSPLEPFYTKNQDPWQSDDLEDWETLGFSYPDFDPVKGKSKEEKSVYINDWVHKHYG

| Structure (SMILES) | IC50 (mushroom tyrosinase [1]) [µM] | IC50 (mushroom tyrosinase [1]; [3]) [µM] | further results |
| --- | --- | --- | --- |
| COc1ccc(C2CC(=O)c3c(O)cc(OC)cc3O2)cc1 (stereo not drawn) [Compound 2, 7,4′-dimethoxynaringenin] | > 500 |  |  |
| O=C1CC(c2ccc(O)c(O)c2)Oc2c1ccc(O)c2O (stereo not drawn) [Compound 4, isookanin] |  | 58.43 ± 0.38 | Ki (mushroom tyrosinase [2]; [4]): 18.6 ± 0.53 µM; Type of inhibition (mushroom tyrosinase [2]; [5]): non-competitive |
| COc1ccc([C@@H]2CC(=O)c3c(O)cc(O)cc3O2)cc1O [Compound 5, hesperetin] | 237 ± 2.63 |  |  |
| COc1ccc(C2CC(=O)c3c(O)cc(OC4OC(COC5OC(C)C(O)C(O)C5O)C(O)C(O)C4O)cc3O2)cc1O (stereo not drawn) [Compound 6, hesperetin 7-O-rutinoside] | 131 ± 1.4 |  |  |
| O=c1cc(-c2ccccc2)oc2cccc(O)c12 [Compound 7, 5-hydroxyflavone] | 120 ± 1.48 |  |  |
| COc1ccccc1-c1cc(=O)c2c(O)cccc2o1 [Compound 8, 5-hydroxy-2′-methoxyflavone] | 122.1 ± 1.19 |  |  |
| COc1cccc(OC)c1-c1cc(=O)c2c(O)cccc2o1 [Compound 9, 5-hydroxy-2′,6′-dimethoxyflavone] | 127 ± 1.4 |  |  |
| O=c1cc(-c2ccccc2)oc2cc(O)cc(O)c12 [Compound 11, chrysin] | 129.4 ± 1.13 |  |  |
| O=c1cc(-c2ccc(O)cc2)oc2cc(O)cc(O)c12 [Compound 12, apigenin] | 160.5 ± 1.44 |  |  |
| O=c1cc(-c2ccc(O)cc2)oc2cc(OC3OC(CO)C(O)C(O)C3O)cc(O)c12 (stereo not drawn) [Compound 13, apigenin 7-O-glucoside] | 323.2 ± 1.48 |  |  |
| O=c1cc(-c2ccc(O)cc2)oc2c([C@@H]3O[C@H](CO)[C@@H](O)[C@H](O)[C@H]3O)c(O)cc(O)c12 [Compound 14, apigenin 8-C-glucoside] | 133 ± 1.83 |  |  |
| COc1ccc(-c2cc(=O)c3c(O)cc(O)cc3o2)cc1 [Compound 16, acacetin] | 207.9 ± 1.35 |  |  |
| O=c1cc(-c2ccc(O)c(O)c2)oc2cc(O)cc(O)c12 [Compound 17, luteolin] |  | 58.9 ± 0.78 | Ki (mushroom tyrosinase [2]; [4]): 11.3 ± 0.77 µM; Type of inhibition (mushroom tyrosinase [2]; [5]): non-competitive |
| O=c1cc(-c2ccc(O)c(O)c2)oc2cc(OC3OC(CO)C(O)C(O)C3O)cc(O)c12 (stereo not drawn) [Compound 18, luteolin 7-O-glucoside] | 415 ± 2.38 |  |  |
| O=c1cc(-c2ccc(O)c(O)c2)oc2cc(O)c([C@@H]3O[C@H](CO)[C@@H](O)[C@H](O)[C@H]3O)c(O)c12 [Compound 20, luteolin-6-C-glucoside] | 133 ± 2.32 |  |  |
| COc1ccc(-c2cc(=O)c3c(O)cc(O)c(C4OC[C@@H](O)[C@H](O)[C@H]4OC4O[C@H](CO)[C@@H](O)[C@H](O)[C@H]4O)c3o2)cc1O (stereo partly drawn) [Compound 22, 5,7,3′-trihydroxy-4′-methoxyflavone-8-C-xylopyranoside-2"-O-glucoside] |  | > 500 |  |
| CC(=O)Oc1ccc(-c2cc(=O)c3c(O)cc(O)c(C4OC[C@@H](O)[C@H](O)[C@H]4OC4O[C@H](CO)[C@@H](O)[C@H](O)[C@H]4O)c3o2)cc1O (stereo partly drawn) [Compound 23, 5,7,3′-trihydroxy-4′-acetoxyflavone-8-C-xylopyranoside-2"-O-glucoside] |  | > 500 |  |
| COc1cc(-c2cc(=O)c3c(O)cc(O)c(C4OC[C@@H](O)[C@H](O)[C@H]4OC4O[C@H](CO)[C@@H](OC(C)=O)[C@H](O)[C@H]4O)c3o2)ccc1OC(C)=O (stereo partly drawn) [Compound 25, 5,7-dihydroxy-3′-methoxy-4′-acetoxyflavone-8-C-xylopyranoside-2"-O-(4′"-acetoxy)-glucoside] |  | > 500 |  |

| Structure (SMILES) | IC50 (mushroom tyrosinase [1]) [µM] | IC50 (mushroom tyrosinase [1]; [3]) [µM] | further results |
| --- | --- | --- | --- |
| O=c1c(O)c(-c2ccc(O)cc2)oc2cc(O)cc(O)c12 [Compound 26, kaempferol] |  | 65.1 ± 1.09 | Ki (mushroom tyrosinase [2]; [4]): 40.2 ± 0.46 µM; Type of inhibition (mushroom tyrosinase [2]; [5]): competitive |
| COc1c(O)cc(O)c2c(=O)c(O)c(-c3ccc(O)cc3)oc12 [Compound 27, 8-methoxykaempferol] |  | 290.5 ± 1.19 |  |
| COc1cc(O)c2c(=O)c(OC)c(-c3ccc(O)cc3)oc2c1 [Compound 28, kumatakenin] |  | > 500 |  |
| O=c1c(O[C@@H]2O[C@H](CO)[C@@H](O)[C@H](O)[C@H]2O)c(-c2ccc(O)cc2)oc2cc(O)cc(O)c12 [Compound 29, kaempferol 3-O-glucoside] | 481.5 ± 1.73 |  |  |
| O=C(O)C1OC(Oc2c(-c3ccc(O)cc3)oc3cc(O)cc(O)c3c2=O)C(O)C(O)C1O (stereo not drawn) [Compound 30, kaempferol 3-O-glucuronide] |  | 270 ± 1.23 |  |
| O=c1c(OC2OC(CO)C(O)C(O)C2O)c(-c2ccc(O)cc2)oc2cc(O)cc(O)c12 (stereo not drawn) [Compound 31, kaempferol 3-O-galactoside] | 186.9 ± 1.09 |  |  |
| O=C(/C=C/c1ccc(O)cc1)OC[C@H]1O[C@@H](Oc2c(-c3ccc(O)cc3)oc3cc(O)cc(O)c3c2=O)[C@H](O)[C@@H](O)[C@@H]1O [Compound 32, kaempferol 3-O-(6″-O-trans-p-coumaroyl)-glucoside] | 78.5 ± 0.84 |  | Ki (mushroom tyrosinase [2]): 9.83 ± 0.57 µM; Type of inhibition (mushroom tyrosinase [2]; [5]): competitive |
| COc1ccc(-c2oc3cc(O)cc(O)c3c(=O)c2OC)cc1 [Compound 33, ermanin] |  | 231.7 ± 1.17 |  |
| COc1ccc(-c2oc3c(CC=C(C)C)c(O[C@@H]4O[C@H](CO)[C@@H](O)[C@H](O)[C@H]4O)cc(O)c3c(=O)c2O[C@@H]2O[C@@H](C)[C@H](O)[C@@H](O)[C@H]2O)cc1 [Compound 34, icariin] |  | 150 ± 1.84 |  |
| O=c1c(O)c(-c2ccc(O)c(O)c2)oc2cc(O)cc(O)c12 [Compound 35, quercetin] |  |  | Type of inhibition (mushroom tyrosinase [2]; [5]): competitive |
| O=C(O)C1OC(Oc2c(-c3ccc(O)c(O)c3)oc3cc(O)cc(O)c3c2=O)C(O)C(O)C1O (stereo not drawn) [Compound 36, quercetin 3-O-glucuronide] | 220.1 ± 1.14 |  |  |
| C[C@@H]1O[C@@H](OC[C@H]2O[C@@H](Oc3c(-c4ccc(O)c(O)c4)oc4cc(O)cc(O)c4c3=O)[C@H](O)[C@@H](O)[C@@H]2O)[C@H](O)[C@H](O)[C@H]1O [Compound 37, quercetin 3-O-rutinoside] | 141.7 ± 1.3 |  |  |
| CC1OC(OCC2OC(Oc3c(-c4ccc(O)c(O)c4)oc4cc(OC5OC(CO)C(O)C(O)C5O)cc(O)c4c3=O)C(O)C(O)C2O)C(O)C(O)C1O (stereo not drawn) [Compound 38, quercetin 3-O-rutinoside-7-O-glucoside] |  | 148 ± 1.57 |  |
| O=c1c(O)c(-c2cc(O)c(O)c(O)c2)oc2cc(O)ccc12 [Compound 41, robinetin] | 63.1 ± 0.85 |  | Ki (mushroom tyrosinase [2]): 27.4 ± 0.62 µM; Type of inhibition (mushroom tyrosinase [2]; [5]): non-competitive |
| O=c1c(O)c(-c2cc(O)c(O)c(O)c2)oc2cc(O)cc(O)c12 [Compound 42, myricetin] | 100 ± 1.86 |  |  |
| O=c1c(-c2ccc(O)cc2)coc2cc(O)ccc12 [Compound 43, daidzein] | > 500 |  |  |
| O=c1c(-c2ccc(O)cc2)coc2cc(O)cc(O)c12 [Compound 44, genistein] | > 500 |  |  |
